From paper PMC9981719, “A novel designed membrane-active peptide for the control of foodborne Salmonella enterica serovar Typhimurium” (Scientific Reports, 2023)
Where no end group is shown, it is not given here.

Legend:
4,5,12:i:- H2-067 = type: cell-based, Salmonella enterica 4,5,12:i:-; details: strain H2-067
Excerpt: (§1) All tests were done in triplicate.

4,5,12:i:- H1-100 = type: cell-based, Salmonella enterica 4,5,12:i:-; details: strain H1-100
Excerpt: as §1

4,5,12:i:- H2-039 = type: cell-based, Salmonella enterica 4,5,12:i:-; details: strain H2-039
Excerpt: as §1

4,5,12:i:- H2-010 = type: cell-based, Salmonella enterica 4,5,12:i:-; details: strain H2-010
Excerpt: as §1

4,5,12:i:- H2-042 [1] = type: cell-based, Salmonella enterica 4,5,12:i:-; details: strain H2-042
Excerpt: as §1

4,5,12:i:- H2-071 = type: cell-based, Salmonella enterica 4,5,12:i:-; details: strain H2-071
Excerpt: as §1

4,5,12:i:- H2-047 = type: cell-based, Salmonella enterica 4,5,12:i:-; details: strain H2-047
Excerpt: as §1

4,5,12:i:- H2-049 = type: cell-based, Salmonella enterica 4,5,12:i:-; details: strain H2-049
Excerpt: as §1

4,5,12:i:- H1-024 = type: cell-based, Salmonella enterica 4,5,12:i:-; details: strain H1-024
Excerpt: as §1

4,5,12:i:- H2-089 = type: cell-based, Salmonella enterica 4,5,12:i:-; details: strain H2-089
Excerpt: as §1

S. Typhimurium H1-015 [2] = details: checkerboard, TSB, 37 °C, 24 h
Experimental: (§2) Effects of the combination of A11 with nisin against S. Typhimurium ATCC 13311 and 10 drug-resistant S. Typhimurium and S. enterica isolates were determined by the checkerboard titration method. Briefly, 10 drug-resistant S. Typhimurium were grown to a concentration of 1 × 10^7 CFU/ml in fresh TSB. Aliquots (25 µl) of nisin (final concentrations of 0.5–16 mg/ml) and A11 (final concentrations of 0.98–250 µg/ml) were added into 96-well plates containing 50 µl of bacterial suspension and cultured at 37 °C. […] ICA is the concentration required to produce the same effect as compound A when used alone, ICB is the concentration required to produce the same effect as compound B when used alone. The CI results were interpreted as follows: a CI of less than 1 indicates synergistic effect, a CI equal to 1 indicates additive effect, and a CI of more than 1 indicates antagonistic effect.

S. Typhimurium H1-062 = details: checkerboard, TSB, 37 °C, 24 h
Experimental: as §2

S. Typhimurium H1-006 = details: checkerboard, TSB, 37 °C, 24 h
Experimental: as §2

4,5,12:i:- H2-042 [3] = details: checkerboard, TSB, 37 °C, 24 h
Experimental: as §2

S. Typhimurium H1-015 [4] = type: cell-based, Salmonella enterica serovar Typhimurium; details: strain H1-015
Excerpt: as §1

S. Typhimurium H1-011 = type: cell-based, Salmonella enterica serovar Typhimurium; details: strain H1-011
Excerpt: as §1

[5] = tested on: Salmonella Typhimurium ATCC 13311; type: cell-based, Salmonella enterica serovar Typhimurium; details: ATCC 13311, 18 h
Excerpt: as §1

S. Typhimurium H1-001 = type: cell-based, Salmonella enterica serovar Typhimurium; details: strain H1-001
Excerpt: as §1

S. Typhimurium ATCC13311 = type: cell-based, Salmonella enterica serovar Typhimurium; details: at MIC and 2 × MIC
Experimental: Bacterial killing kinetics of A11 were investigated against S. Typhimurium as described previously. S. Typhimurium ATCC13311 was grown in TSB at 37 °C until reaching the exponential phase. […] The mixture was sampled at 1, 2, 4, 6, 8, 12 and 24 h, and subsequently tenfold serially diluted in 1 × PBS and plated in triplicate on Mueller–Hinton agar (MHA). After incubation at 37 °C for 24 h, the colonies were counted and CFU/ml was calculated. The tests were done in three independent experiments.

[6] = tested on: Acinetobactero baumanii MT strain; type: cell-based
Excerpt: as §1

[7] = tested on: Staphylococcus aureus ATCC 25923; type: cell-based
Excerpt: as §1

[8] = tested on: Listeria monocytogenes 10403s; type: cell-based; details: 10403s
Excerpt: as §1

[9] = tested on: Staphylococcus epidermidis ATCC 12228; type: cell-based
Excerpt: as §1

[10] = tested on: Pseudomonas aeruginosa ATCC 27853; type: cell-based
Excerpt: as §1

[11] = tested on: Bacillus cereus ATCC 11778; type: cell-based
Excerpt: as §1

WVKKVARKVVKIGRKVAR-NH2 [A11]
MBC (4,5,12:i:- H2-067): 62.5 (62.5) µg/ml
MIC (4,5,12:i:- H2-067): 62.5 (62.5) µg/ml
MBC (4,5,12:i:- H1-100): 62.5 (62.5) µg/ml
MIC (4,5,12:i:- H1-100): 62.5 (62.5) µg/ml
MBC (4,5,12:i:- H2-039): 125 µg/mL
MIC (4,5,12:i:- H2-039): 62.5 µg/mL
MBC (4,5,12:i:- H2-010): 62.5 (62.5) µg/ml
MIC (4,5,12:i:- H2-010): 62.5 (62.5) µg/ml
MBC (4,5,12:i:- H2-042 [1]): 125 µg/mL
MIC (4,5,12:i:- H2-042 [1]): 62.5 µg/mL
MBC (4,5,12:i:- H2-071): 125 (125) µg/ml
MIC (4,5,12:i:- H2-071): 125 (125) µg/ml
MBC (4,5,12:i:- H2-047): 125 µg/mL
MIC (4,5,12:i:- H2-047): 62.5 µg/mL
MBC (4,5,12:i:- H2-049): 125 µg/mL
MIC (4,5,12:i:- H2-049): 62.5 µg/mL
MBC (4,5,12:i:- H1-024): 62.5 (62.5) µg/ml
MIC (4,5,12:i:- H1-024): 62.5 (62.5) µg/ml
MBC (4,5,12:i:- H2-089): 125 µg/mL
MIC (4,5,12:i:- H2-089): 62.5 µg/mL
MIC (alone) (S. Typhimurium H1-015 [2]): 62.5 µg/mL
MIC (alone) (S. Typhimurium H1-062): 125 µg/mL
MIC (alone) (S. Typhimurium H1-006): 125 µg/mL
MIC (alone) (4,5,12:i:- H2-042 [3]): 62.5 µg/mL
MBC (S. Typhimurium H1-015 [4]): 62.5 (62.5) µg/ml
MIC (S. Typhimurium H1-015 [4]): 62.5 (62.5) µg/ml
MBC (S. Typhimurium H1-011): 62.5 (62.5) µg/ml
MIC (S. Typhimurium H1-011): 62.5 (62.5) µg/ml
MIC, Control [5]: 15.63 µg/mL
MBC (S. Typhimurium H1-001): 125 µg/mL
MIC (S. Typhimurium H1-001): 62.5 µg/mL
killing of S. Typhimurium within 6 h (S. Typhimurium ATCC13311): more than 99%
MBC ([6]; 18 h): 31.25 µg/mL
MIC ([6]; 24 h): 15.63 µg/mL
MBC ([7]; ATCC 25923, 18 h): > 250 (> 250) µg/ml
MIC ([7]; ATCC 25923, 24 h): > 250 (> 250) µg/ml
MBC ([8]; 18 h): 125 (125) µg/ml
MIC ([8]; 24 h): 125 (125) µg/ml
MBC ([9]; ATCC 12228, 18 h): 31.25 µg/mL
MIC ([9]; ATCC 12228, 24 h): 15.63 µg/mL
MBC ([10]; ATCC 27853, 18 h): 62.5 µg/mL
MIC ([10]; ATCC 27853, 24 h): 31.25 µg/mL
MBC ([11]; ATCC 11778, 18 h): 250 (250) µg/ml
MIC ([11]; ATCC 11778, 24 h): 250 (250) µg/ml
